According to paper PMC8729767, “Specific Strains of Honeybee Gut Lactobacillus Stimulate Host Immune System to Protect against Pathogenic Hafnia alvei” (Microbiology Spectrum, 2022):
Read-outs that look alike come from different tables or passages of the source. Peptide text beside a SMILES is read from it.

Columns and labels:
H. alvei = assay type: cell-based, Hafnia alvei
Procedure: To verify the inhibitory effect of AMPs secreted by honeybees on H. alvei, we performed an in vitro AMP resistance assay (Table S2 in the supplemental material). A. mellifera expresses two dominant apidaecin isoforms (Ia, Ib) at a ratio of approximately 1 : 20 ([31]). […] However, low concentration (8–16 μg/ml) of apidaecin-1a and 1b inhibited the growth of H. alvei, and the pathogen was slightly more resistant to apidaecin Ia than to Ib.
To test the activity of AMPs against H. alvei, growth inhibition assays in liquid media were performed using 50% diluted HIA media. AMPs synthesized by GL Biochem and Sangon Biotech were serially diluted in 96-well plates to obtain concentrations of 0.5 to 512 µg/ml. Overnight grown H. alvei cultures from HIA media were diluted to 1 × 10^6 CFU/ml in 50% Heart Infusion Broth. Optical density was recorded after 24 h of incubation at 35°C, 5% CO2.

[1] = test system: honeybees exposed to H. alvei; assay: H. alvei infection survival assay; assay type: in vivo, Apis mellifera; conditions: adult worker bees fed 450 μg/ml tetracycline in sucrose syrup, then orally exposed to H. alvei SMH01 for 24 h; N = 30 bees per group; Mantel-Cox test, P < 0.05
Procedure: Using in vivo virulence assays, we first explored whether H. alvei is pathogenic to adult honeybees. One H. alvei strain SMH01 was isolated from the worker bee gut. Then we investigated if the strain contributes to increased mortality of bees with normal or disturbed gut microbiota. Adult worker bees were collected from a brood frame in the hive and were treated with or without tetracycline. After introduction in the lab, groups of bees were fed filter-sterilized sucrose syrup (controls) or tetracycline suspended in the diet (Tet) for 5 days (Fig. 1A). Then we challenged bees with H. alvei SMH01. Bees were orally exposed to H. alvei in their food for 24 h. […] To confirm the pathogenicity of H. alvei to honeybees, we performed histology of honeybee guts exposed to H. alvei. […] Damaged tissue presented barely preserved mucosal architecture of the rectum in H. alvei-infected bees (Fig. 1C and D).
Approximately 200 adult worker bees were collected from brood frame from the hive kept at Miyun County, Beijing (March 2019). The bees were immobilized at 4°C and were divided into two cohorts (control and tetracycline treatment) distributed to cup cages as previously described ([11]). The cup cages were maintained in an incubator at 35°C, with humidity of 50%. Each cohort has five replicating cup cages containing ∼20 bees in each cup. […]

[2] = H. alvei 1 × 10^6 CFU/ml in 50% Heart Infusion Broth, optical density after 24 h at 35°C, 5% CO2

For apidaecin-1b, the “low concentration that inhibited the growth of H. alvei” value (H. alvei; [2]) was 8 to 16 µg/mL and the “concentration with a profound inhibition on the growth of H. alvei” value (H. alvei; in vitro growth inhibition, 24 h, 35°C, 5% CO2) was ≥ 4 µg/mL.

In the case of hymenoptaecin, the MIC (H. alvei; H. alvei 1 × 10^6 CFU/ml in 50% Heart Infusion Broth, AMPs serially diluted 0.5 to 512 µg/ml in 96-well plates, optical density after 24 h at 35°C, 5% CO2) is reported as > 512 mg/L.

In the case of CN(C)[C@@H]1C(O)=C(C(N)=O)C(=O)[C@@]2(O)C(O)=C3C(=O)c4c(O)cccc4[C@@](C)(O)[C@H]3C[C@@H]12 [Tetracycline, tetracycline], the “survivorship of honeybees after exposure to H. alvei” value [1] is reported as “reduced survivorship”.

In the case of apidaecin-1a, the “low concentration that inhibited the growth of H. alvei” value (H. alvei; [2]) is reported as 8 to 16 µg/mL.

CC[C@H](C)[C@H](NC(=O)[C@H](CCCCN)NC(=O)[C@@H]1CCCN1C(=O)[C@H](CC(N)=O)NC(=O)[C@H](Cc1ccccc1)NC(=O)[C@@H]1CCCN1C(=O)CNC(=O)[C@H](CCC(N)=O)NC(=O)CNC(=O)[C@@H]1CCCN1C(=O)[C@H](Cc1ccccc1)NC(=O)[C@@H](NC(=O)[C@@H]1CCCN1C(=O)[C@H](Cc1ccccc1)NC(=O)[C@@H]1CCCN1C(=O)[C@H](CCCNC(=N)N)NC(=O)[C@H](CCCNC(=N)N)NC(=O)CNC(=O)[C@@H]1CCCN1C(=O)[C@H](CCC(N)=O)NC(=O)[C@@H]1CCCN1C(=O)[C@@H](NC(=O)[C@H](CC(N)=O)NC(=O)[C@@H]1CCCN1C(=O)[C@H](CC(C)C)NC(=O)[C@@H]1CCCN1C(=O)[C@@H](NC(=O)[C@@H](N)Cc1ccc(O)cc1)C(C)C)[C@@H](C)CC)[C@@H](C)O)C(=O)N[C@@H](CCCCN)C(=O)N[C@@H](Cc1c[nH]c2ccccc12)C(=O)N1CCC[C@H]1C(=O)N[C@@H](CCC(N)=O)C(=O)NCC(=O)N[C@@H](Cc1ccc(O)cc1)C(=O)O [abaecin] (H-YVPLPNIPQPGRRPFPTFPGQGPFNPKIKWPQGY-OH; N-terminus and C-terminus assumed) was tested, and the MIC (H. alvei; 24 h) was > 512 mg/L.
